Source: ChEMBL document CHEMBL1149346, “Activity of nitrogen-containing and non-nitrogen-containing bisphosphonates on tumor cell lines” (J Med Chem, 2006)

Columns and labels:
Format in all cases: functional, cell-based
NCI-H460 = test: Antiproliferative activity against human NCI-H460 cell line by MTT assay
SF-268 = test: cells; conditions: Homo sapiens
Description: Antiproliferative activity against human SF-268 cell line by MTT assay

MCF7 = test: Antiproliferative activity against human MCF7 cell line by MTT assay
13762 = test: Antiproliferative activity against rat 13762 cell line

IC50 (NCI-H460) | IC50 (SF-268) | IC50 (MCF7) | Compound | IC50 13762
> 10000 µM | > 10000 µM | > 10000 µM | O=P([O-])(O)C(C[n+]1ccc2ccccc2c1)P(=O)(O)O (centres undefined) | 
446 µM | 349 µM | 533 µM | O=P(O)(O)C(Cc1ccc(Br)c(Br)c1)P(=O)(O)O | 
69.9 µM | 46.8 µM | 79.4 µM | O=P([O-])(O)C(O)(C[n+]1ccccc1)P(=O)(O)O (centres undefined) | 
2.7 µM | 1.43 µM | 0.34 µM | CC(C)(C)C(=O)OCOP(=O)(OCOC(=O)C(C)(C)C)C(Cc1ccc(Cl)c(Cl)c1)P(=O)(OCOC(=O)C(C)(C)C)OCOC(=O)C(C)(C)C | 
52.2 µM | 27.2 µM | 44.2 µM | O=P([O-])(O)C(O)(C[n+]1cccc(-c2ccccc2)c1)P(=O)(O)O (centres undefined) | 
> 1000 µM | > 1000 µM | > 1000 µM | N#Cc1cccc(CC(P(=O)(O)O)P(=O)(O)O)c1 | 
140 µM | 130 µM | 152 µM | O=P(O)(O)C(O)(Cc1cccc(-c2cccc(-c3ccccc3)c2)c1)P(=O)(O)O | 
41.3 µM | 43.6 µM | 34.6 µM | O=P([O-])(O)C(C[n+]1cccc(-c2ccccc2)c1)P(=O)(O)O (centres undefined) | 
5.6 µM | 6.5 µM | 17.3 µM | O=P([O-])(O)C(O)(C[n+]1cccc(-c2ccc(F)cc2)c1)P(=O)(O)O (centres undefined) | 
66.8 µM | 52.6 µM | 98.1 µM | Cc1ccc[n+](CC(O)(P(=O)([O-])O)P(=O)(O)O)c1 (centres undefined) | 
279 µM | 261 µM | 260 µM | Cc1ccc2c(ccc[n+]2CC(O)(P(=O)([O-])O)P(=O)(O)O)c1 (centres undefined) | 
54.5 µM | 55.7 µM | 33.5 µM | O=P([O-])(O)C(O)(C[n+]1cccc(Br)c1)P(=O)(O)O (centres undefined) | 
22.9 µM | 49.2 µM | 82.5 µM | CN(CCCCc1ccccc1)CCC(O)(P(=O)(O)O)P(=O)(O)O | 
133 µM | 143 µM | 146 µM | O=P(O)(O)C(O)(CCc1cccc(-c2ccccc2-c2ccccc2)c1)P(=O)(O)O | 
> 10000 µM | > 10000 µM | > 10000 µM | O=P([O-])(O)C(C[n+]1ccc(-c2ccc(-c3ccccc3)cc2)cc1)P(=O)(O)O (centres undefined) | 
644 µM | 436 µM | 409 µM | COc1cc[n+](CC(O)(P(=O)([O-])O)P(=O)(O)O)cc1 (centres undefined) | 
14.8 µM | 13.1 µM | 21.4 µM | CCCCc1ccc[n+](CC(O)(P(=O)([O-])O)P(=O)(O)O)c1 (centres undefined) | 
21.5 µM | 23.2 µM | 25.1 µM | O=P([O-])(O)C(C[n+]1cccc(-c2ccc(-c3ccccc3)cc2)c1)P(=O)(O)O (centres undefined) | 
> 10000 µM | > 10000 µM | > 10000 µM | CN(C)c1cc[n+](CC(O)(P(=O)([O-])O)P(=O)(O)O)cc1 (centres undefined) | 
4.85 µM | 4.78 µM | 1.97 µM | CC(C)OC(=O)OCOP(=O)(OCOC(=O)OC(C)C)C(Cc1ccc(Cl)c(Cl)c1)P(=O)(OCOC(=O)OC(C)C)OCOC(=O)OC(C)C | 
> 10000 µM | > 10000 µM | > 10000 µM | O=P([O-])(O)C(O)(C[n+]1ccc(-c2ccncc2)cc1)P(=O)(O)O (centres undefined) | 

IC50 (NCI-H460) | IC50 (SF-268) | IC50 (MCF7) | Compound | IC50 13762
63.7 µM | 147 µM | 223 µM | O=P(O)(O)C(CNc1ccccn1)P(=O)(O)O | 
71.8 µM | 408 µM | 141 µM | NCCC(O)(P(=O)(O)O)P(=O)(O)O [PAMIDRONIC ACID] | 33.6 µM
312 µM | 290 µM | 304 µM | O=P([O-])(O)C(O)(C[n+]1ccc(-c2ccccc2)cc1)P(=O)(O)O (centres undefined) | 
> 10000 µM | > 10000 µM | > 10000 µM | O=P([O-])(O)C(C[n+]1cccc(S(=O)(=O)N2CCCC2)c1)P(=O)(O)O (centres undefined) | 
> 10000 µM | > 10000 µM | > 10000 µM | O=P([O-])(O)C(C[n+]1ccc(-c2cccc(-c3ccccc3)c2)cc1)P(=O)(O)O (centres undefined) | 
86.1 µM | 58 µM | 92.7 µM | O=P(O)(O)C(O)(Cc1cccc(-c2ccccc2-c2ccccc2)c1)P(=O)(O)O | 
53.7 µM | 89.3 µM | 123 µM | O=P([O-])(O)C(C[n+]1cccc(I)c1)P(=O)(O)O (centres undefined) | 
211 µM | 111 µM | 191 µM | O=P([O-])(O)C(O)(C[n+]1ccc(Cc2ccccc2)cc1)P(=O)(O)O (centres undefined) | 
5.73 µM | 6.18 µM | 46 µM | O=P(O)(O)C(CNCc1cccc(-c2ccccc2)c1)P(=O)(O)O | 
71.7 µM | 45.8 µM | 50.7 µM | CCc1ccc[n+](CC(O)(P(=O)([O-])O)P(=O)(O)O)c1 (centres undefined) | 
208 µM | 232 µM | 236 µM | O=P([O-])(O)C(C[n+]1cccc(-c2ccccc2-c2ccccc2)c1)P(=O)(O)O (centres undefined) | 
0.62 µM | 0.65 µM | 0.22 µM | CC(C)(C)C(=O)OCOP(=O)(OCOC(=O)C(C)(C)C)C(Cc1ccc(Br)c(Br)c1)P(=O)(OCOC(=O)C(C)(C)C)OCOC(=O)C(C)(C)C | 
33 µM | 24.1 µM | 26.5 µM | CCCCc1ccc[n+](CC(P(=O)([O-])O)P(=O)(O)O)c1 (centres undefined) | 
5.95 µM | 7.89 µM | 6.44 µM | CC(C)(C)C(=O)OCOP(=O)(OCOC(=O)C(C)(C)C)C(CNc1ccccn1)P(=O)(OCOC(=O)C(C)(C)C)OCOC(=O)C(C)(C)C | 
285 µM | 303 µM | 310 µM | O=P(O)(O)C(O)(c1cccc(-c2cccc(-c3ccccc3)c2)c1)P(=O)(O)O | 
18.5 µM | 67 µM | 69.2 µM | O=P([O-])(O)C(O)(C[n+]1cccc(Cc2ccccc2)c1)P(=O)(O)O (centres undefined) | 
469 µM | 301 µM | 447 µM | CCC(C)CNC(P(=O)(O)O)P(=O)(O)O (centres undefined) | 
3210 µM | 399 µM | 339 µM | O=P(O)(O)C(Nc1ncccc1OCc1ccccc1)P(=O)(O)O | 
74.4 µM | 30.7 µM | 37.2 µM | O=P([O-])(O)C(O)(C[n+]1cccc(-c2ccc(O)cc2)c1)P(=O)(O)O (centres undefined) | 
22.6 µM | 7.77 µM | 58.6 µM | CC(C)OC(=O)OCOP(=O)(OCOC(=O)OC(C)C)C(Cc1cccc(C#N)c1)P(=O)(OCOC(=O)OC(C)C)OCOC(=O)OC(C)C | 
58.1 µM | 58.3 µM | 121 µM | O=P([O-])(O)C(O)(C[n+]1cccc(Cl)c1)P(=O)(O)O (centres undefined) | 

IC50 (NCI-H460) | IC50 (SF-268) | IC50 (MCF7) | Compound | IC50 13762
109 µM | 65.1 µM | 72.3 µM | O=P([O-])(O)C(C[n+]1ccccc1)P(=O)(O)O (centres undefined) | 
46.9 µM | 44.7 µM | 43.9 µM | O=P(O)(O)C(O)(CCc1cccc(-c2cccc(-c3ccccc3)c2)c1)P(=O)(O)O | 
142 µM | 132 µM | 129 µM | O=P([O-])(O)C(C[n+]1cccc(C(F)(F)F)c1)P(=O)(O)O (centres undefined) | 
132 µM | 175 µM | 196 µM | O=P(O)(O)C(O)(CCc1cccc(-c2ccc(-c3ccccc3)cc2)c1)P(=O)(O)O | 
> 10000 µM | > 10000 µM | > 10000 µM | O=P([O-])(O)C(C[n+]1ccc(C(F)(F)F)cc1)P(=O)(O)O (centres undefined) | 
62 µM | 44.8 µM | 42.6 µM | CCc1ccc[n+](CC(P(=O)([O-])O)P(=O)(O)O)c1 (centres undefined) | 
92.9 µM | 109 µM | 143 µM | O=P([O-])(O)C(C[n+]1cccc(Br)c1)P(=O)(O)O (centres undefined) | 
297 µM | 260 µM | 288 µM | O=P([O-])(O)C(O)(C[n+]1ccc2ccccc2c1)P(=O)(O)O (centres undefined) | 
65.8 µM | 49.3 µM | 58.1 µM | O=P([O-])(O)C(O)(C[n+]1cccc(F)c1)P(=O)(O)O (centres undefined) | 
59 µM | 72.7 µM | 132 µM | O=P([O-])(O)C(C[n+]1cccc(Cl)c1)P(=O)(O)O (centres undefined) | 
23.2 µM | 10.4 µM | 14.5 µM | O=P([O-])(O)C(O)(C[n+]1cccc(-c2ccc(C(F)(F)F)cc2)c1)P(=O)(O)O (centres undefined) | 
270 µM | 257 µM | 289 µM | Cc1ccc2ccc[n+](CC(O)(P(=O)([O-])O)P(=O)(O)O)c2c1 (centres undefined) | 
20.1 µM | 28.3 µM | 15.2 µM | CC(C)OC(=O)OCOP(=O)(OCOC(=O)OC(C)C)C(Cc1ccc(F)c(F)c1)P(=O)(OCOC(=O)OC(C)C)OCOC(=O)OC(C)C | 
62 µM | 44.6 µM | 38.1 µM | Cc1ccc[n+](CC(P(=O)([O-])O)P(=O)(O)O)c1 (centres undefined) | 
284 µM | 243 µM | 280 µM | O=P([O-])(O)C(C[n+]1ccc(-c2ccccc2-c2ccccc2)cc1)P(=O)(O)O (centres undefined) | 
1.64 µM | 2.38 µM | 2.62 µM | CC(C)(C)C(=O)OCOP(=O)(OCOC(=O)C(C)(C)C)C(Cc1cccc(-c2cccc(-c3ccccc3)c2)c1)P(=O)(OCOC(=O)C(C)(C)C)OCOC(=O)C(C)(C)C | 
43.7 µM | 23.3 µM | 35.7 µM | O=P(O)(O)C(O)(Cc1cccnc1)P(=O)(O)O [RISEDRONIC ACID] | > 40 µM
329 µM | 475 µM | 1060 µM | O=P(O)(O)C(O)(Cc1ccc(-c2ccccc2-c2ccccc2)cc1)P(=O)(O)O | 
141 µM | 133 µM | 125 µM | O=P([O-])(O)C(C[n+]1ccc(Cc2ccccc2)cc1)P(=O)(O)O (centres undefined) | 
12.6 µM | 14.4 µM | 22.7 µM | O=P(O)(O)C(CNc1ccncc1)P(=O)(O)O | 
413 µM | 620 µM | 412 µM | O=P(O)(O)C(O)(Cc1ccc(-c2cccc(-c3ccccc3)c2)cc1)P(=O)(O)O | 

Compound | IC50 (NCI-H460) | IC50 (SF-268) | IC50 (MCF7) | IC50 13762
O=P(O)(O)C(O)(Cn1ccnc1)P(=O)(O)O [ZOLEDRONIC ACID] | 11.7 µM | 14.3 µM | 27.7 µM | 
